Laboratory results published in patent US20090317293A1, “METHOD AND DEVICE FOR ELIMINATING MICROBES WITHIN INDUSTRIAL PIPELINES” (BioCorrosion Solutions Inc., priority 2008, published 2009).

How the values were obtained:
[1] = system: D. vulgaris (ATCC#29579) biofilms; assay: Photodynamic disinfection of peg biofilms, 670 nm laser, anaerobic (Example X); type: cell-based, Desulfovibrio vulgaris; settings: control: methylene blue formulation alone, no laser light
[2] = system: D. desulfuricans biofilms; assay: Photodynamic disinfection of well-plate biofilms, broadband light, anaerobic (Example XI); type: cell-based, Desulfovibrio desulfuricans; settings: 0.1%, then 60 second broadband illumination
Method: (§1) In this study, biofilms of sulfate reducing bacteria were treated with photodynamic disinfection as in Example X above. In these experiments, however, illumination of the biofilms was performed using a broadband (wide wavelength) light source instead of a laser. […] For the broadband light photodynamic disinfection exposures, biofilms of D. vulgaris and D. sulfuricans were grown on the inner surface of flat-bottomed 96-well plates. In brief, 50 μl of liquid inoculum in log growth phase was added to each well, and plates were then incubated (37° C.) on an […] shaker at 125 rpm for 48 hours in order to allow biofilm growth. […] After this growth period, plates were removed from the shaker into an anaerobic cabinet, where all photodynamic disinfection treatments were performed. […] Raw surviving colony counts for each experimental condition were averaged and back-calculated given dilution factor to give data in CFU/ml. The data was presented as CFU/ml of surviving organisms after treatment, and kill rate was calculated as this value in experimental samples vs. control (no light, no photosensitizer) and expressed as both a log and percentage reduction in viability. […]

[3] = system: Desulfovibrio vulgaris (ATCC#29579); assay: In vitro photodynamic disinfection of planktonic bacteria, aerobic and anaerobic (Example IX); type: cell-based
Method: An in vitro photodynamic disinfection model was used to evaluate antibacterial efficacy against a strain of bacteria commonly found in biofilms growing on the inner surface of industrial oil and gas pipelines. […] This organism is a facultative anaerobe, and typically grows in nature in environments that contain little or no oxygen. Thus, prior to the experiments the bacteria was grown on pre-reduced solid media (brucella blood agar enriched with haemin and vitamin K) at 37° C. under anaerobic conditions. The exposures to photodynamic disinfection were run in both anaerobic and aerobic conditions in order to determine the importance of local oxygen during the photoreaction. […] In addition, several experimental conditions were run in the presence of L-tryptophan, which is a known scavenger of singlet oxygen and other oxygen derived free radicals. The addition of L-tryptophan was designed to test whether the antimicrobial killing effect of photodynamic disinfection was in fact dependent on the generation of reactive forms of oxygen. […] In addition, controls consisting of exposure to either photosensitizer or illumination alone were run to ensure that neither of these variables contributed to bacterial killing on their own. For these photodynamic disinfection experiments, log phase planktonic bacterial inoculum was prepared to a concentration of 10^7 colony-forming units per milliliter (CFU/ml) in a buffered saline solution. […] After illumination, samples were serially diluted and plated on tryptic soy agar for 48 hours at 37° C. Raw surviving colony counts for each experimental condition were averaged and back-calculated given dilution factor to give data in CFU/ml. The data was presented as CFU/ml of surviving organisms after treatment, and kill rate was calculated as this value in experimental samples vs. control (no light, no photosensitizer) and expressed as both a log and percentage reduction in viability. The entire experimental protocol was performed in the dark, and all samples were exposed and plated one at a time to limit ambient light exposure and to maintain the exposure time of bacteria to test solution uniform across all replicates. All experimental and control conditions were run in triplicate for each individual experiment, and experiments were performed on three separate occasions to verify reproducibility.

[4] = system: D. desulfuricans (ATCC#14563) biofilms; assay: Photodynamic disinfection of peg biofilms, 670 nm laser, anaerobic (Example X); type: cell-based, Desulfovibrio desulfuricans; settings: control: methylene blue formulation alone, no laser light
D. vulgaris biofilms = assay: Photodynamic disinfection of well-plate biofilms, broadband light, anaerobic (Example XI); type: cell-based, Desulfovibrio vulgaris; settings: 0.1% w/v, 30 seconds, then 60 seconds broadband illumination (150 watt haloid lamp)
Method: as §1

[5] = system: D. vulgaris (ATCC#29579) biofilms; assay: Treatment of peg biofilms with chemical disinfectant, anaerobic (Example X); type: cell-based, Desulfovibrio vulgaris
Method: (§2) Homogenous biofilms of the sulfate reducing organisms D. vulgaris (ATCC#29579) and D. desulfuricans (ATCC#14563) were grown on hard plastic pegs using a previously published protocol and system (Innovotech, Calgary, Canada). Briefly, bacterial suspensions of D. vulgaris and D. desulfuricans consisting of 10^8 CFU/ml were prepared in modified Barrs medium for sulfate reducers (ATCC), then diluted 1:40. 200 μl of this inoculum was added to each well of a 96-well plate. 96-peg lids were then placed into the wells and the assembly was incubated at 37° C. on an Excella E2 gyrorotary shaker (Fisher Scientific) at 125 rpm for 24 hours. For both biofilm protocols, all inoculum and plates were prepared and incubated anaerobically. During the incubation period, the visible formation of an insoluble black residue in each well indicated bacterial metabolism, and after incubation a visible biofilm was evident on each pegs.
(§3) For treatment of biofilms with benzalkonium chloride (BAC), biofilms grown on pegs as described above were used. 96-peg lids were removed from the bacterial inoculum after 24 hours of incubation, and rinsed twice to remove any free-floating organisms by placing the peg lid in 96-well plates containing 300 μl of sterile water. Pegs were then placed in aqueous solutions containing either 0% (water only control), 0.01%, 0.1%, or 1% BAC for 30 seconds. After this exposure pegs were immediately placed in recovery media and processed/plated as described above for enumeration of surviving organisms. All BAC exposure conditions were run in triplicate in anaerobic conditions for each organism.

[6] = system: D. desulfuricans (ATCC#14563) biofilms; assay: as above; type: cell-based, Desulfovibrio desulfuricans
Method: as §2, §3

[7] = aerobic, 0.01% w/v aqueous methylene blue, 670 nm diode laser 20.6 J/cm2 (60 seconds), planktonic
[8] = anaerobic, 0.01% w/v aqueous methylene blue, 670 nm laser 20.6 J/cm2, planktonic
[9] = 30 second exposure to 0.01% aqueous solution
[10] = 30 second exposure to 0.1% aqueous solution
[11] = 30 second exposure to 1% aqueous solution

CN(C)c1ccc2nc3ccc(=[N+](C)C)cc-3sc2c1 [methylene blue]
reduction in biofilm viability [1]: Neither the methylene blue formulation nor the laser light alone led to any significant reduction | reduction in viability [2]: did not result in a significant reduction in viability | killing [3, 7]: > 99.99% | log10 reduction in viability vs. non-treated controls [3, 7]: 4.4±2.3 log10 | log10 reduction in viability vs. non-treated controls ([3]; aerobic, 0.01% w/v methylene blue with 20 mM L-tryptophan, 670 nm laser 20.6 J/cm2, planktonic): 1.7±0.6 log10 | killing [3, 8]: > 99.9% | log10 reduction vs. non-treated control [3, 8]: 3.5±0.8 log10 | log10 reduction from non-treated control ([3]; anaerobic, 0.01% w/v methylene blue with 20 mM L-tryptophan, 670 nm laser 20.6 J/cm2, planktonic): 2.5±2.1 log10 | antibacterial action ([3]; control: photosensitizer composition alone, no illumination): No significant antibacterial action | reduction in biofilm viability [4]: Neither the methylene blue formulation nor the laser light alone led to any significant reduction | decrease in viability compared to non-treated control (D. vulgaris biofilms): 1.5 log10 | inhibition at 0.1 % strength (D. vulgaris biofilms; Nitratidesulfovibrio vulgaris, read-out: decrease in viability compared to non-treated control): ~95%

benzalkonium chloride [BAC]
reduction in viability vs. non-treated control [5, 9]: 0.5 log10 | reduction in viability vs. non-treated control [5, 10]: 1.4 log10 | reduction in viability vs. non-treated control [5, 11]: 1.5 log10 | reduction in viability vs. non-treated control [6, 9]: 0.6 log10 | reduction in viability vs. non-treated control [6, 10]: 2.7 log10 | reduction in viability vs. non-treated control [6, 11]: 1.9 log10
